tested on: Magnaporthe grisea (Pyricularia oryzae—PYRIOR); test: microbe, parasite or virus in culture; type: cell-based; settings: Pyricularia oryzae, read-out: PYRIOR in vitro Growth Inhibition

How did the inhibition at 25 ppm turn out when `COc1ccnc(C(=O)NC2CC(C(F)(F)F)CC(C(F)(F)F)C2)c1O` (stereo not drawn) [Compound 256] was run?
The inhibition at 25 ppm was less than 80%.

With `COc1ccnc(C(=O)NC2CC(C)(C)C=C[C@@H](C)[C@@H]2C)c1OC(C)=O` (stereo partly drawn) [Compound 578] as the molecule, how does the inhibition at 25 ppm read?
Its inhibition at 25 ppm is less than 80%.

With `COc1ccnc(C(=O)NC(COC(=O)CCc2ccccc2)C(=O)OC(C)COC(=O)C(C)C)c1O` (stereo not drawn) [Compound 358] as the molecule, how does the inhibition at 25 ppm read?
Its inhibition at 25 ppm is less than 80%.

tested on: Phytophthora infestans (PHYTIN); test: microbe, parasite or virus in culture; type: cell-based; settings: Phytophthora infestans, read-out: PHYTIN in vitro Growth Inhibition

For `COc1ccnc(C(=O)NC2CC(C(F)(F)F)CC(C(F)(F)F)C2)c1O` (stereo not drawn) [Compound 256], which inhibition at 25 ppm is on record?
The inhibition at 25 ppm was less than 80%.

For `COc1ccnc(C(=O)NC2CC(C)(C)C=C[C@@H](C)[C@@H]2C)c1OC(C)=O` (stereo partly drawn) [Compound 578], which inhibition at 25 ppm is on record?
The inhibition at 25 ppm was less than 80%.

`COc1ccnc(C(=O)NC(COC(=O)CCc2ccccc2)C(=O)OC(C)COC(=O)C(C)C)c1O` (stereo not drawn) [Compound 358] was tested. Which inhibition at 25 ppm did it give?
The inhibition at 25 ppm was less than 80%.

tested on: Mycosphaerella graminicola (Septoria tritici—SEPTTR); test: In vitro fungal growth inhibition, Mycosphaerella graminicola (SEPTTR); type: cell-based; settings: Zymoseptoria tritici; 25 ppm in growth medium; read-out: SEPTTR in vitro Growth Inhibition

How did the inhibition at 25 ppm turn out when `COc1ccnc(C(=O)NC2CC(C(F)(F)F)CC(C(F)(F)F)C2)c1O` (stereo not drawn) [Compound 256] was run?
Its inhibition at 25 ppm is less than 80%.

Which inhibition at 25 ppm does the source give for `COc1ccnc(C(=O)NC(COC(=O)CCc2ccccc2)C(=O)OC(C)COC(=O)C(C)C)c1O` (stereo not drawn) [Compound 358] here?
The inhibition at 25 ppm was less than 80%.

same assay, conditions: Zymoseptoria tritici; 25 ppm in the growth medium; read-out: SEPTTR in vitro Growth Inhibition

How did the inhibition at 25 ppm turn out when `COc1ccnc(C(=O)NC2CC(C)(C)C=C[C@@H](C)[C@@H]2C)c1OC(C)=O` (stereo partly drawn) [Compound 578] was run?
Its inhibition at 25 ppm is less than 80%.

tested on: Puccinia recondita—PUCCRT; test: Brown Rust of Wheat, in vivo whole plant, 24 Hour Protectant; settings: Puccinia; 100 ppm spray, 24 hour protectant, wheat; control of fungal infection vs untreated plants; read-out: PUCCRT in vivo 1 Day Protectant

With `COc1ccnc(C(=O)NC2CC(C(F)(F)F)CC(C(F)(F)F)C2)c1O` (stereo not drawn) [Compound 256] as the molecule, how does the pest or weed control at 100 ppm read?
Its pest or weed control at 100 ppm is 25 to 74%.

same assay, conditions: Puccinia; 100 ppm spray, wheat, 24 hour protectant; control of fungal infection vs untreated plants; read-out: PUCCRT in vivo 1 Day Protectant

With `COc1ccnc(C(=O)NC(COC(=O)CCc2ccccc2)C(=O)OC(C)COC(=O)C(C)C)c1O` (stereo not drawn) [Compound 358] as the molecule, how does the pest or weed control at 100 ppm read?
Its pest or weed control at 100 ppm is 25 to 74%.

same assay, conditions: Puccinia; wheat plants sprayed at 100 ppm, inoculated after 24 hours; control of fungal infection vs untreated plants; read-out: PUCCRT in vivo 1 Day Protectant

`COc1ccnc(C(=O)NC2CC(C)(C)C=C[C@@H](C)[C@@H]2C)c1OC(C)=O` (stereo partly drawn) [Compound 578] was tested. Which pest or weed control at 100 ppm did it give?
The pest or weed control at 100 ppm was less than 25%.

tested on: Phytophthora infestans—PHYTIN; test: whole plant or invertebrate; type: in vivo; settings: Phytophthora, in Solanum lycopersicum, 24 h, read-out: PHYTIN in vivo 1 Day Protectant

Which pest or weed control at 100 ppm does the source give for `COc1ccnc(C(=O)NC2CC(C(F)(F)F)CC(C(F)(F)F)C2)c1O` (stereo not drawn) [Compound 256] here?
The pest or weed control at 100 ppm was less than 25%.

For `COc1ccnc(C(=O)NC2CC(C)(C)C=C[C@@H](C)[C@@H]2C)c1OC(C)=O` (stereo partly drawn) [Compound 578], which pest or weed control at 100 ppm is on record?
Its pest or weed control at 100 ppm is less than 25%.

`COc1ccnc(C(=O)NC(COC(=O)CCc2ccccc2)C(=O)OC(C)COC(=O)C(C)C)c1O` (stereo not drawn) [Compound 358] was tested. Which pest or weed control at 100 ppm did it give?
Its pest or weed control at 100 ppm is less than 25%.

tested on: Erysiphe graminis—ERYSGT; test: Powdery Mildew of Wheat, in vivo whole plant, 24 Hour Protectant; settings: Erysiphe; 100 ppm spray, 24 hour protectant, wheat; control of fungal infection vs untreated plants; read-out: ERYSGT in vivo 1 Day Protectant

With `COc1ccnc(C(=O)NC2CC(C(F)(F)F)CC(C(F)(F)F)C2)c1O` (stereo not drawn) [Compound 256] as the molecule, how does the pest or weed control at 100 ppm read?
Its pest or weed control at 100 ppm is 25 to 74%.

same assay, conditions: Erysiphe; 100 ppm spray, wheat, 24 hour protectant; control of fungal infection vs untreated plants; read-out: ERYSGT in vivo 1 Day Protectant

With `COc1ccnc(C(=O)NC(COC(=O)CCc2ccccc2)C(=O)OC(C)COC(=O)C(C)C)c1O` (stereo not drawn) [Compound 358] as the molecule, how does the pest or weed control at 100 ppm read?
The pest or weed control at 100 ppm was less than 25%.

same assay, conditions: Erysiphe; wheat plants sprayed at 100 ppm, inoculated after 24 hours; control of fungal infection vs untreated plants; read-out: ERYSGT in vivo 1 Day Protectant

Which pest or weed control at 100 ppm does the source give for `COc1ccnc(C(=O)NC2CC(C)(C)C=C[C@@H](C)[C@@H]2C)c1OC(C)=O` (stereo partly drawn) [Compound 578] here?
Its pest or weed control at 100 ppm is less than 25%.

tested on: Ustilago maydis (USTIMA); test: microbe, parasite or virus in culture; type: cell-based; settings: Mycosarcoma maydis, read-out: USTIMA in vitro Growth Inhibition

`COc1ccnc(C(=O)NC2CC(C(F)(F)F)CC(C(F)(F)F)C2)c1O` (stereo not drawn) [Compound 256] was tested. Which inhibition at 25 ppm did it give?
The inhibition at 25 ppm was less than 80%.

With `COc1ccnc(C(=O)NC2CC(C)(C)C=C[C@@H](C)[C@@H]2C)c1OC(C)=O` (stereo partly drawn) [Compound 578] as the molecule, how does the inhibition at 25 ppm read?
Its inhibition at 25 ppm is less than 80%.

`COc1ccnc(C(=O)NC(COC(=O)CCc2ccccc2)C(=O)OC(C)COC(=O)C(C)C)c1O` (stereo not drawn) [Compound 358] was tested. Which inhibition at 25 ppm did it give?
The inhibition at 25 ppm was less than 80%.

tested on: Leptosphaeria nodorum—LEPTNO; test: Glume Blotch of Wheat, in vivo whole plant, 24 Hour Protectant; settings: Leptosphaeria; 100 ppm spray, 24 hour protectant, wheat; control of fungal infection vs untreated plants; read-out: LEPTNO in vivo 1 Day Protectant

For `COc1ccnc(C(=O)NC2CC(C(F)(F)F)CC(C(F)(F)F)C2)c1O` (stereo not drawn) [Compound 256], which pest or weed control at 100 ppm is on record?
Its pest or weed control at 100 ppm is 25 to 74%.

same assay, conditions: Leptosphaeria; 100 ppm spray, wheat, 24 hour protectant; control of fungal infection vs untreated plants; read-out: LEPTNO in vivo 1 Day Protectant

How did the pest or weed control at 100 ppm turn out when `COc1ccnc(C(=O)NC(COC(=O)CCc2ccccc2)C(=O)OC(C)COC(=O)C(C)C)c1O` (stereo not drawn) [Compound 358] was run?
The pest or weed control at 100 ppm was 25 to 74%.

same assay, conditions: Leptosphaeria; wheat plants sprayed at 100 ppm, inoculated after 24 hours; control of fungal infection vs untreated plants; read-out: LEPTNO in vivo 1 Day Protectant

How did the pest or weed control at 100 ppm turn out when `COc1ccnc(C(=O)NC2CC(C)(C)C=C[C@@H](C)[C@@H]2C)c1OC(C)=O` (stereo partly drawn) [Compound 578] was run?
Its pest or weed control at 100 ppm is 25 to 74%.

tested on: Septoria tritici—SEPTTR; test: Leaf Blotch of Wheat, in vivo whole plant, 24 Hour Protectant; settings: Zymoseptoria tritici, 24 h, 100 ppm spray, 24 hour protectant, wheat; control of fungal infection vs untreated plants; read-out: SEPTTR in vivo 1 Day Protectant

With `COc1ccnc(C(=O)NC2CC(C(F)(F)F)CC(C(F)(F)F)C2)c1O` (stereo not drawn) [Compound 256] as the molecule, how does the pest or weed control at 100 ppm read?
Its pest or weed control at 100 ppm is 25 to 74%.

same assay, conditions: Zymoseptoria tritici, 24 h, 100 ppm spray, wheat, 24 hour protectant; control of fungal infection vs untreated plants; read-out: SEPTTR in vivo 1 Day Protectant

How did the pest or weed control at 100 ppm turn out when `COc1ccnc(C(=O)NC(COC(=O)CCc2ccccc2)C(=O)OC(C)COC(=O)C(C)C)c1O` (stereo not drawn) [Compound 358] was run?
The pest or weed control at 100 ppm was 25 to 74%.

same assay, conditions: Zymoseptoria tritici, 24 h, wheat plants sprayed at 100 ppm, inoculated after 24 hours; control of fungal infection vs untreated plants; read-out: SEPTTR in vivo 1 Day Protectant

For `COc1ccnc(C(=O)NC2CC(C)(C)C=C[C@@H](C)[C@@H]2C)c1OC(C)=O` (stereo partly drawn) [Compound 578], which pest or weed control at 100 ppm is on record?
The pest or weed control at 100 ppm was 25 to 74%.

tested on: Rhizoctonia solani (RHIZSO); test: microbe, parasite or virus in culture; type: cell-based; settings: Rhizoctonia solani, read-out: RHIZSO in vitro Growth Inhibition

For `COc1ccnc(C(=O)NC2CC(C(F)(F)F)CC(C(F)(F)F)C2)c1O` (stereo not drawn) [Compound 256], which inhibition at 25 ppm is on record?
Its inhibition at 25 ppm is less than 80%.

For `COc1ccnc(C(=O)NC2CC(C)(C)C=C[C@@H](C)[C@@H]2C)c1OC(C)=O` (stereo partly drawn) [Compound 578], which inhibition at 25 ppm is on record?
The inhibition at 25 ppm was less than 80%.

For `COc1ccnc(C(=O)NC(COC(=O)CCc2ccccc2)C(=O)OC(C)COC(=O)C(C)C)c1O` (stereo not drawn) [Compound 358], which inhibition at 25 ppm is on record?
Its inhibition at 25 ppm is less than 80%.

tested on: Stagonospora nodorum (Leptosphaeria nodorum—LEPTNO); test: In vitro fungal growth inhibition, Stagonospora nodorum (LEPTNO); type: cell-based; settings: Leptosphaeria; 25 ppm in growth medium; read-out: LEPTNO in vitro Growth Inhibition

How did the inhibition at 25 ppm turn out when `COc1ccnc(C(=O)NC2CC(C(F)(F)F)CC(C(F)(F)F)C2)c1O` (stereo not drawn) [Compound 256] was run?
The inhibition at 25 ppm was less than 80%.

With `COc1ccnc(C(=O)NC(COC(=O)CCc2ccccc2)C(=O)OC(C)COC(=O)C(C)C)c1O` (stereo not drawn) [Compound 358] as the molecule, how does the inhibition at 25 ppm read?
The inhibition at 25 ppm was less than 80%.

same assay, conditions: Leptosphaeria; 25 ppm in the growth medium; read-out: LEPTNO in vitro Growth Inhibition

`COc1ccnc(C(=O)NC2CC(C)(C)C=C[C@@H](C)[C@@H]2C)c1OC(C)=O` (stereo partly drawn) [Compound 578] was tested. Which inhibition at 25 ppm did it give?
The inhibition at 25 ppm was less than 80%.
